Measurements reported in ChEMBL document CHEMBL3137667, “[Drug-induced liver injury; fourteenth updated edition of the bibliographic database of liver injuries and related drugs]” (Gastroenterol Clin Biol, 2004).

Key:
[1] = human
[2] = human; remark: listed apart in the source
[3] = human; remark: listed apart in the source
[4] = human; remark: listed apart in the source
[5] = Highest frequency of moderate liver toxicity observed during clinical trials, expressed as a percentage. [column '% BIOL' in source]; conditions: human
[6] = human; remark: listed apart in the source
[7] = human, serum, 4383 h
[8] = human; remark: listed apart in the source
[9] = human, serum
[10] = human; remark: listed apart in the source
[11] = Highest frequency of acute liver toxicity observed during clinical trials, expressed as a percentage. [column '% AIGUE' in source]; conditions: human
[12] = human, serum; remark: listed apart in the source
[13] = human; remark: listed apart in the source
[14] = human; remark: listed apart in the source
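Wherever Hepatotoxicity (association with vascular disease) is given: count of indexed literature references reporting vascular liver injury in humans, e.g. peliosis hepatitis, hepatic veno-occlusive disease or Budd-Chiari syndrome.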
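Wherever Hepatotoxicity (benign tumour) is given: value is a count of indexed literature references citing a benign tumour confirmed by histopathology.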
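Wherever Hepatotoxicity (choleostasis) is given: human cholestatic liver injury, shown by histopathology or by peak ALT or AST elevation over alkaline phosphatase ratio below 2, value counts indexed literature reports.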
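Wherever Hepatotoxicity (chronic liver disease) is given: chronic liver injury confirmed by histopathology or persistently raised serum aminotransferase activity beyond 6 months, value given as the count of indexed literature references.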
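Wherever Hepatotoxicity (cirrhosis) is given: value is a count of indexed literature references reporting cirrhosis confirmed by histopathology.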
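Wherever Hepatotoxicity (cytolytic) is given: human cytolytic liver injury, shown by histopathology or by a ratio above 5 of peak ALT or AST elevation to alkaline phosphatase elevation, value counts indexed references.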
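Wherever Hepatotoxicity (granulomatous hepatitis) is given: value is a count of indexed literature references reporting granulomatous liver disease confirmed by histopathology.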
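Wherever Hepatotoxicity (malignant tumour) is given: malignant tumour confirmed by histopathology, value gives the count of indexed literature references reporting it.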
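Wherever Hepatotoxicity (severe hepatitis) is given: human clinical data: severe hepatitis, meaning potentially life-threatening liver failure or clinically observed cases, the value counts how many indexed literature references report it.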
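Wherever Hepatotoxicity (steatosis) is given: steatosis confirmed by histopathology, value is the count of indexed references.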

| Structure (SMILES) | Hepatotoxicity (steatosis) [1] | Hepatotoxicity (granulomatous hepatitis) [2] | Hepatotoxicity (association with vascular disease) [3] | Hepatotoxicity (cirrhosis) [4] | Hepatotoxicity (moderate) [5] [%] | Hepatotoxicity (severe hepatitis) [6] | Hepatotoxicity (chronic liver disease) [7] | Hepatotoxicity (cytolytic) [8] | Hepatotoxicity (moderate) [9] | Hepatotoxicity (malignant tumour) [10] | Hepatotoxicity (acute) [11] [%] | Hepatotoxicity (acute) [12] | Hepatotoxicity (choleostasis) [13] | Hepatotoxicity (benign tumour) [14] | Hepatotoxicity (granulomatous hepatitis) ([2]; Liver) | Hepatotoxicity (moderate) ([5]; Liver) [%] | Hepatotoxicity (severe hepatitis) ([6]; Liver) | Hepatotoxicity (cytolytic) ([8]; Liver) | Hepatotoxicity (acute) ([11]; Liver) [%] | Hepatotoxicity (choleostasis) ([13]; Liver) |
| --- | --- | --- | --- | --- | --- | --- | --- | --- | --- | --- | --- | --- | --- | --- | --- | --- | --- | --- | --- | --- |
| COC(=O)C1=C(C)NC(C)=C(C(=O)O[C@H]2CCN(Cc3ccccc3)C2)[C@H]1c1cccc([N+](=O)[O-])c1 [BARNIDIPINE] | 0 | 0 | 0 | 0 | 6.5 | 0 | 0 | 0 | 1 | 0 | 0 | 0 | 0 | 0 |  |  |  |  |  |  |
| CC(C)C[C@H](NC(=O)[C@H](CCCCN)NC(=O)CNC(=O)[C@H](CC(C)C)NC(=O)[C@@H](NC(=O)[C@@H]1CSSC[C@H](N)C(=O)N[C@@H](CO)C(=O)N[C@@H](CC(N)=O)C(=O)N[C@@H](CC(C)C)C(=O)N[C@@H](CO)C(=O)N[C@@H]([C@@H](C)O)C(=O)N1)C(C)C)C(=O)N[C@@H](CO)C(=O)N[C@@H](CCC(N)=O)C(=O)N[C@@H](CCC(=O)O)C(=O)N[C@@H](CC(C)C)C(=O)N[C@@H](Cc1c[nH]cn1)C(=O)N[C@@H](CCCCN)C(=O)N[C@@H](CC(C)C)C(=O)N[C@@H](CCC(N)=O)C(=O)N[C@H](C(=O)N[C@@H](Cc1ccc(O)cc1)C(=O)N1CCC[C@H]1C(=O)N[C@@H](CCCNC(=N)N)C(=O)N[C@H](C(=O)N[C@@H](CC(N)=O)C(=O)N[C@H](C(=O)NCC(=O)N[C@@H](CO)C(=O)NCC(=O)N[C@H](C(=O)N1CCC[C@H]1C(N)=O)[C@@H](C)O)[C@@H](C)O)[C@@H](C)O)[C@@H](C)O [CALCITONIN SALMON] | 0 | 0 | 0 | 0 | 3.1 | 0 | 0 | 0 | 1 | 0 | 0 | 0 | 0 | 0 |  |  |  |  |  |  |
| NC(CO)(CO)CO [TROMETHAMINE] | 0 |  | 0 | 0 |  |  | 0 |  | 0 | 0 |  | 2 |  | 0 | 0 | 0 | 2 | 2 | 0 | 0 |
| CC1(C)S[C@@H]2[C@H](N3C(=O)[C@@H](c4ccccc4)NC3(C)C)C(=O)N2[C@H]1C(=O)O [HETACILLIN] | 0 | 0 | 0 | 0 | 0 | 0 | 0 | 1 | 0 | 0 | 0 | 1 | 0 | 0 |  |  |  |  |  |  |
| O=c1n(CC2CO2)c(=O)n(CC2CO2)n1CC1CO1 (configuration not stated) [ANAXIRONE] | 0 | 0 | 0 | 0 | 0 | 0 | 0 | 0 | 1 | 0 | 0 | 0 | 0 | 0 |  |  |  |  |  |  |
| Nc1ncnc2c1ncn2CCOCP(=O)(O)O [ADEFOVIR] | 0 | 0 | 0 | 0 | 33.3 | 0 | 0 | 1 | 2 | 0 | 7.4 | 1 | 0 | 0 |  |  |  |  |  |  |
| CN1CCC[C@@H]1CCO[C@](C)(c1ccccc1)c1ccc(Cl)cc1 [CLEMASTINE] | 0 | 0 | 0 | 0 | 0.7 | 0 | 0 | 0 | 1 | 0 | 0 | 0 | 0 | 0 |  |  |  |  |  |  |
| C#C[C@]1(O)CC[C@H]2[C@@H]3CCC4=CCCC[C@@H]4[C@H]3CC[C@@]21C [LYNESTRENOL] | 0 | 0 | 0 | 0 | 0 | 0 | 0 | 0 | 0 | 0 | 0 | 3 | 3 | 0 |  |  |  |  |  |  |
